Test results published in patent US20160320368A1, “METHOD AND APPARATUS FOR PREDICTING EFFECTIVE DOSE OR SENSITIVITY OF 5-HYDROXY-1H-IMIDAZOLE-4-CARBOXAMIDE, METHOD FOR DETERMINING AMOUNT OF XANTHOSINE MONOPHOSPHATE, AND TREATMENT AGENT AND METHOD FOR TREATING MYELODYSPLASTIC SYNDROME” (FUJIFILM Corporation, priority 2014, published 2016).

Legend:
[1] = system: XMP in blood cells; assay: XMP in blood cells of mice after oral administration; format: in vivo, female mice (BALB/cAJcl); conditions: 100 mg/kg oral, non-treated = 100%
Experimental: (§1) A ¾ hydrate of Compound A was used as a test compound.
0.5% MC or 0.5% MC of the test compound (100 mg/kg in terms of Compound A) was orally administered to female mice (BALB/cAJcl).
Whole blood was collected from the postcava of animals under anesthesia by isoflurane inhalation at 1, 4, 8 or 24 hours post-dose, using a polypropylene syringe treated with an ethylenediaminetetraacetic acid disodium salt and a 25 gauge injection needle. BD Pharm Lyse (555899, manufactured by Becton, Dickinson and Company, Inc.) was added to the blood (2 mL of BD Pharm Lyse was added relative to 0.2 mL of blood). After stirring with a vortex mixer, the reaction solution was protected from light and allowed to stand at room temperature for 15 min. After centrifugation at 20° C. and 1000×g for 5 min, the supernatant was removed and suspended in 10 mL of a PBS solution. After centrifugation at 4° C. and 1000×g for 5 min, the supernatant was removed, and 1000 μL of methanol was added to each tube, followed by stirring. Thereafter, 500 μL of ultrapure water was added thereto, followed by further stirring. 600 μL of the reaction solution was divided into each of two tubes, and 400 μL of chloroform was added to each tube. The reaction solution was stirred and then centrifuged at 4° C. and 10000×g for 15 min. 400 μL of the aqueous phase was recovered and added to an ultrafiltration tube, followed by centrifugation at 12° C. and 9200×g for 2 hours. The filtrates were combined and then dried under reduced pressure at 40° C. for 2 hours by using a centrifugal evaporator. After drying, the resulting product was stored in a freezer at −80° C.
The samples obtained in (2-1) and (2-2) were returned to room temperature, and 40 μL of ultrapure water was added to the hemolysis sample and 150 μL of ultrapure water was added to the bone marrow sample. The mixture was stirred and then centrifuged at 4° C. and 21500×g for 5 min. For the hemolysis sample, 35 μL of the supernatant was transferred to a vial. For the bone marrow sample, 140 μL of the supernatant was transferred to a vial. After storage at 4° C., XMP in samples was determined in the LC-MS/MS determination instrument, LC conditions and MS/MS conditions described in Example 3 (3).
Amounts of XMP (%) were calculated assuming that amounts of XMP in a non-Compound A treated group are defined as 100%.

[2] = system: XMP in blood cells of healthy human; assay: XMP in blood cells of healthy human (hemolysis, Example 4); format: cell-based; conditions: 37° C., 8 hours, non-treated = 100%
Experimental: as §1
450 μL of the blood collected from two healthy individuals by heparinized blood collection (Analyte A and Analyte B) was added to each of 1.5 mL tubes, and 50 μL of a PBS solution of the test compound (0 μg/mL, 10 μg/mL, 30 μg/mL, 100 μg/mL, 300 μg/mL, or 1000 μg/mL in terms of Compound A) for each concentration was added to each tube. The reaction mixture was stirred in an incubator at 37° C. for 8 hours. Then, BD Pharm Lyse (555899, manufactured by Becton, Dickinson and Company, Inc.) was added to the blood (2 mL of BD Pharm Lyse was added relative to 0.2 mL of blood). After stirring with a vortex mixer, the reaction solution was protected from light and allowed to stand at room temperature for 15 min. After centrifugation at 20° C. and 1000×g for 5 min, the supernatant was removed and suspended in 10 mL of a PBS solution. After centrifugation at 4° C. and 1000×g for 5 min, the supernatant was removed, and 1000 μL of methanol was added to each tube, followed by stirring. Thereafter, 500 μL of ultrapure water was added thereto, followed by further stirring. 600 μL of the reaction solution was divided into each of two tubes, and 400 μL of chloroform was added to each tube. The reaction solution was stirred and then centrifuged at 4° C. and 10000×g for 15 min. 400 μL of the aqueous phase was recovered and added to an ultrafiltration tube, followed by centrifugation at 12° C. and 9200×g for 2 hours. The filtrates were combined and then dried under reduced pressure at 40° C. for 2 hours by using a centrifugal evaporator. After drying, the resulting product was stored in a freezer at −80° C.
The samples stored in (1) and (2) were returned to room temperature and 40 μL of ultrapure water was added to each sample. The mixture was stirred and centrifuged at 4° C. and 21500×g for 5 min. 35 μL of the supernatant was transferred to a vial. After storage at 4° C., XMP in samples was determined in the LC-MS/MS determination instrument, LC conditions and MS/MS conditions described in Example 3 (3).
Amounts of XMP (%) were calculated assuming that the XMP value of a non-Compound A treated group (peak area value) is defined as 100%.

[3] = PK test of Compound A, single oral administration, plasma concentration; format: in vivo, female mice (BALB/cAJcl); conditions: from 10 mg/kg up to 80 mg/kg
Experimental: Non-fasting female mice (BALB/cAJcl) were given a single oral administration of the test compound (10 mg/kg, 40 mg/kg, 80 mg/kg and 160 mg/kg in terms of Compound A).
V1/F, K01, K10, K12 and K21, pharmacokinetic parameters of the two-compartment model, were calculated from the plasma concentration course of Compound A when Compound A was given as a single oral administration. These parameters were used to predict the plasma concentration course of Compound A upon repeated administration in a variety of dosage regimen. […] The parameter of 160 mg/kg was used to carry out the prediction for 120 mg/kg and 240 mg/kg. […] PK parameters (Cmax, Time above IC50 and AUC0-48) were plotted on the X axis, and the inhibition rate of tumor volume was plotted on the Y axis.

linearity of plasma pharmacokinetics [3]: linearity was recognized
SMILES: NC(=O)c1nc[nH]c1O [Compound A, 5-Hydroxy-1H-imidazole-4-carboxamide]
Amount of XMP (%) Blood cell ([1]; 1 hr post-dose): 3.4%
Amount of XMP (%) Blood cell ([1]; 4 hr post-dose): 7.2%
Amount of XMP (%) Blood cell ([1]; 8 hr post-dose): 26.4%
Amount of XMP (%) Blood cell ([1]; 24 hr post-dose): 70.7%
Amount of XMP (%) Analyte A ([2]; Compound A 1 μg/mL): 60%
Amount of XMP (%) Analyte B ([2]; Compound A 1 μg/mL): 51%
Amount of XMP (%) Analyte A ([2]; Compound A 3 μg/mL): 45%
Amount of XMP (%) Analyte B ([2]; Compound A 3 μg/mL): 37%
Amount of XMP (%) Analyte A ([2]; Compound A 10 μg/mL): 37%
Amount of XMP (%) Analyte B ([2]; Compound A 10 μg/mL): 25%
Amount of XMP (%) Analyte A ([2]; Compound A 30 μg/mL): 27%
Amount of XMP (%) Analyte B ([2]; Compound A 30 μg/mL): 18%
Amount of XMP (%) Analyte A ([2]; Compound A 100 μg/mL): 16%
Amount of XMP (%) Analyte B ([2]; Compound A 100 μg/mL): 10%
